Measurements: patent publication US8906344B2, “F-18 radiolabeled compounds for diagnosing and monitoring kidney function” (Kasina Laila Innova Pharmaceuticals Private Limited, priority 2012, dated 2014)
Read-outs that look alike come from different tables or passages of the source.

Assays:
[1] = Limited organ bio-distribution in mice; format: in vivo, Female Swiss Albino mice; details: for Kidney (% ID) / Small Intestine (% ID) / Urine (% ID) / Liver (% ID): n=4
Procedure: Female Swiss Albino mice were randomized (4 animals per time-point) according to body weight on the day prior to the experimental date. Some of the selected compounds of formula (I) are evaluated for a limited bio-distribution study involving five selected organs of interest such as Blood, Liver, Small Intestines, Kidneys and Urine. Each compound was dissolved in a vehicle comprising of 10% N-methyl-2-pyrrolidone in sterile water to achieve a final strength of 1 mg/mL. The mixture was sonicated for 2 min to yield a clear solution. Compound was administered to mice via tail vein at a dose volume of 2 mL/kg in order to obtain a final dose of 2 mg/kg. […] Blood was collected from the retro-orbital plexus in K2-EDTA containing tubes, centrifuged, plasma harvested and stored at −80° C. until further analysis. Liver, kidneys (right and left), and small intestine were harvested, weighted, and stored at −80° C. The small intestine was flushed with normal saline prior to storage. Urine was collected directly from the bladder and stored at −80° C.
Liver, kidneys, and small intestine were homogenized in water at 20% w/v. The respective homogenates were mixed thoroughly and stored at −80° C. until further processing. An aliquot of 100 μL of plasma/tissue homogenate was transferred to a 1.5 mL micro centrifuge tube. Twenty five microliters of compound (5 μg/mL), hundred microliters of 1% formic acid and 750 μL of tert-butyl methyl ether were added and sample was vortexed for 3 min. After centrifugation of the sample at 12,000 rpm at 4° C. for 5 min, supernatant was removed and evaporated under nitrogen stream at 40° C. for an additional 10 min (nitrogen evaporator, Caliper Instruments USA). The residue was reconstituted with 125 μL of solution (acetonitrile:water 1:1) and 10 μL was injected into the chromatographic system. On similar lines, an aliquot of 50 μL of urine was transferred to a 1.5 mL micro centrifuge tube. One hundred and fifty microliters of compound (5 μg/mL), was added and sample was vortexed for 3 min. After centrifugation of the sample at 12,000 rpm at 4° C. for 5 min, supernatant was removed and 10 μL was subjected to LC-MS/MS (Thermo Quantum Ultra) for the analysis.
Analyte concentrations were determined by evaluating the peak area ratio of drug to internal standard against a standard curve. The standard curve was prepared by plotting the relationship between peak area ratio of analyte to internal standard against concentration of standard CC samples by using linear regression y=ax+b and putting the 1/x^2 as weighting factor.
Data were expressed as ng/g for liver, kidneys, and small intestine. Percent compound in tissues was calculated based on the absolute dose administered (mg/kg). Plasma concentrations as a percent of administered dose were extrapolated assuming a total blood volume of 6% body weight and a 60% yield (plasma from blood). Compound concentrations in urine were expressed as μg per total volume collected.

[2] = Plasma clearance in rats, single injection clearance method; details: for Plasma clearance: normal rats; for Clearance: rats, 2 mg/kg i.v. bolus tail vein, n=3, LC-MS/MS, noncompartmental
Procedure: The experiment for each compound was performed in isoflurane-anesthetized male SD rats (body weight 180-260 gm; n=3). Solution formulation of each compound was prepared in sterile water for injection with strength of 1 mg/mL. All solution formulations were prepared freshly prior to dosing. The dose volume for i.v bolus injection was 2 mL/kg. Three rats for each compound were administered intravenously (i.v.) bolus injection in tail vein at 2 mg/kg body weight. Blood samples were obtained at pre-dose (0 hr), 0.08, 0.17, 0.25, 0.5, 0.75, 1 and 2 hr post dosing. The blood samples (˜120 μL) were taken from the retro-orbital plexus into labelled micro centrifuge tubes, containing 10 μL of 2% w/v K2EDTA solution, as an anticoagulant. […] Bioanalysis of rat plasma samples were analysed with developed method for each analyte using LC-MS/MS (Waters, Xevo TQ-S). The pharmacokinetic parameters such as area under the curve (AUC), elimination half-life (T1/2), volume of distribution (Vss) and clearance (CL) were estimated using a noncompartmental model in Phoenix WinNonlin software, version 6.3.

[3] = literature, cited from earlier work; for Plasma clearance: known renal diagnostic agents
[4] = 15 min after injection, 2 mg/kg tail vein
[5] = 15 min after injection, 2 mg/kg tail vein, n=4, plasma extrapolated assuming blood volume 6% body weight, 60% yield
[6] = 60 min after injection, n=4, plasma extrapolated to blood

Molecule	Kidney (% ID) [1, 4] [% ID]	Small Intestine (% ID) [1, 4] [% ID]	Urine (% ID) [1, 4] [% ID]	Kidney (% ID) ([1]; 60 min after injection)	Small Intestine (% ID) ([1]; 60 min after injection)	retention in liver, small intestine and kidney (in words) ([1]; 15 min after injection)	Liver (% ID) [1, 4] [% ID]	Blood (% ID) [1, 5] [% ID]	Liver (% ID) ([1]; 60 min after injection)	Blood (% ID) [1, 6] [% ID]	Plasma clearance [2] [ml/min/100 g]	Clearance [2] [mL/min/100 g]	Plasma clearance [3] [ml/min/100 g]	clearance as percent of the clearance of 131I-OIH [3]
Nc1ccc(C(=O)NCC(=O)O)c([18F])c1 [Compound 1, 2-(4-amino-2-(18)fluorobenzamido)acetic acid]	0.51 ± 0.45	0.07 ± 0.08	87.76 ± 6.03	0.00 ± 0.00	0.00 ± 0.00									
CC(=O)Nc1ccc(C(=O)NCC(=O)O)c([18F])c1 [Compound 2, 2-(4-Acetamido-2-(18)fluorobenzamido)acetic acid]	1.19 ± 0.53	0.09 ± 0.04	84.42 ± 3.44	0.05 ± 0.09	0.02 ± 0.02									
Nc1cc(C(=O)NCC(=O)O)ccc1[18F] [Compound 3, 2-(3-Amino-4-(18)fluorobenzamido)acetic acid]	0.13 ± 0.01	0.04 ± 0.02	72.73 ± 1.91	0.00 ± 0.00	0.00 ± 0.00	minimum retention	0.08 ± 0.04	0.83 ± 0.02	0.00 ± 0.00	0.02 ± 0.02	2.78±0.19	2.78 ± 0.19		
Nc1ccc(C(=O)NCC(=O)O)cc1[19F] [Compound 6, 2-(4-Amino-3-(18)fluorobenzamido)acetic acid]	0.47 ± 0.20	0.11 ± 0.08	78.21 ± 4.79	0.01 ± 0.01	0.01 ± 0.01	minimum retention	0.08 ± 0.02	0.68 ± 0.38	0.02 ± 0.02	0.02 ± 0.01	3.48±0.63	3.48 ± 0.63		
Nc1cccc([18F])c1C(=O)NCC(=O)O [Compound 8, 2-(2-Amino-6-(18)fluorobenzamido)acetic acid]	0.91 ± 0.40	0.10 ± 0.09	87.51 ± 4.14	0.02 ± 0.03	0.01 ± 0.01							1.55 ± 0.10		
C[C@H](NC(=O)c1ccc(N)cc1[18F])C(=O)O [Compound 10, (S)-2-(4-Amino-2-(18)fluorobenzamido)propanoic acid]	0.09 ± 0.04	0.01 ± 0.01	83.59 ± 8.82	0.00 ± 0.00	0.00 ± 0.00	minimum retention	0.21 ± 0.05	0.50 ± 0.27	0.05 ± 0.07	0.01 ± 0.00	3.25±0.13	3.25 ± 0.13		
C[C@@H](NC(=O)c1ccc(N)cc1[18F])C(=O)O [Compound 11, (R)-2-(4-Amino-2-(18)fluorobenzamido)propanoic acid]	0.06 ± 0.02	0.09 ± 0.05	82.31 ± 9.60	0.01 ± 0.02	0.00 ± 0.00	minimum retention	0.02 ± 0.03	0.94 ± 0.53	0.00 ± 0.00	0.12 ± 0.17	3.36±0.41	3.36 ± 0.41		
O=C(O)CNC(=O)c1ccccc1[131I] [Compound I-131, I-131-ortho iodohippuran]													2.17	
Tc-99m MercaptoAcetylGlycylGlycylGlycine [Tc-99m MAG-3]													2.84	50%-60%
